Active and inactive are the calls of the source. The calls are words filed in the database; no cut-off is given here.
target: T1, Proto-oncogene tyrosine-protein kinase Src (Homo sapiens, UniProt P12931); assay: Inhibition of GST-tagged c-Src preincubated for 5 mins measured after 30 mins
T1 sequence (P12931 2-536 limits assumed): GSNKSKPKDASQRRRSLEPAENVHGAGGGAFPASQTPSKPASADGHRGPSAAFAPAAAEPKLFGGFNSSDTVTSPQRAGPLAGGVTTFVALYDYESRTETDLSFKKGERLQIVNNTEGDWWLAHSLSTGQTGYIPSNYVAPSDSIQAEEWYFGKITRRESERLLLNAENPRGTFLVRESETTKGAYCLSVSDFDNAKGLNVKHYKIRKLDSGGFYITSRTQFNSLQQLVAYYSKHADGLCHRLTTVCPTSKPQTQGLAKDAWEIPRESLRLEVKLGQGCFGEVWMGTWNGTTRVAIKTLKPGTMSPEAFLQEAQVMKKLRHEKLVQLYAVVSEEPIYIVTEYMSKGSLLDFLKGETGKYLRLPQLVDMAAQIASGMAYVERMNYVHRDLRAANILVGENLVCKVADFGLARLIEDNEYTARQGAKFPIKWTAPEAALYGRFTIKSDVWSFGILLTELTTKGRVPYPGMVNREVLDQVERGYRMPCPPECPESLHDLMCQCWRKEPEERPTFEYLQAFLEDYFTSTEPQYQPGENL

Row | Compound | IC50
1 | OC[C@H]1O[C@@H](Oc2cccc3ccccc23)[C@H](O)[C@@H]1O | 1370 µM
2 | Cc1ccc(O[C@@H]2O[C@H](CO)[C@@H](O)[C@H]2O)cc1 | 143 µM
3 | COc1ccc(O[C@@H]2O[C@H](CO)[C@@H](O)[C@H]2O)cc1 | 484 µM
4 | OC[C@H]1O[C@@H](Oc2ccc(-c3ccccc3)cc2)[C@H](O)[C@@H]1O | 125 µM
5 | OC[C@H]1O[C@H](Oc2cccc3ccccc23)[C@H](O)[C@@H]1O | 185 µM
6 | Cc1cccc(O[C@H]2O[C@H](CO)[C@@H](O)[C@H]2O)c1 | 451 µM
7 | OC[C@H]1O[C@@H](Oc2ccc(O)cc2)[C@H](O)[C@@H]1O | 272 µM
8 | COc1cccc(O[C@@H]2O[C@H](CO)[C@@H](O)[C@H]2O)c1 | 95 µM
9 | OC[C@H]1O[C@@H](Oc2ccc3ccccc3c2)[C@H](O)[C@@H]1O | 225 µM
10 | OC[C@H]1O[C@H](Oc2ccc3ccccc3c2)[C@H](O)[C@@H]1O | 297 µM

target: T1, Proto-oncogene tyrosine-protein kinase Src; assay: Inhibition of GST-tagged c-Src up to 100 uM preincubated for 5 mins measured after 30 mins

Row | Compound | inhibition
11 | OC[C@H]1O[C@H](Oc2ccc(O)cc2)[C@H](O)[C@@H]1O | inactive
12 | COc1ccc(O[C@H]2O[C@H](CO)[C@@H](O)[C@H]2O)cc1 | inactive
13 | COc1cccc(O[C@H]2O[C@H](CO)[C@@H](O)[C@H]2O)c1 | inactive
14 | OC[C@H]1O[C@H](Oc2ccc(-c3ccccc3)cc2)[C@H](O)[C@@H]1O | inactive

— ChEMBL document CHEMBL2203061, “O-Aryl α,β-d-ribofuranosides: synthesis & highly efficient biocatalytic separation of anomers and evaluation of their Src kinase inhibitory activity” (Bioorg Med Chem, 2012)
